This is an account of results in patent US9510596B2, “Binary pesticidal and fungicidal mixtures” (BAYER CROPSCIENCE AG, priority 2012, dated 2016).

The test system of the test is Phakopsora pachyrhizi. Kind of test: Phakopsora test (soybean)/seed treatment. In kind it is in vivo. The settings on record: greenhouse, infected leaf area per plant. The procedure: The test is performed under greenhouse conditions.
Soy bean seeds, treated with the active compound or compound combinations, solved in N-methyl-2-pyrrolidon and diluted with water to the desired dosages, were sown in 6*6 cm pots containing 4 cm of a 1:1 mix of steamed field soil and sand.
The plants were grown at 22° C. and 90% relative humidity in a greenhouse chamber. 21 days old plants were inoculated with an aqueous spore suspension of the causal agent of soybean rust (Phakopsora pachyrhizi) and stay for 24 h without light in an incubation cabinet at approximately 24° C. and a relative atmospheric humidity of 95%. The plants remain in the incubation cabinet at approximately 24° C. and a relative atmospheric humidity of approximately 80% and a day/night interval of 12 h.
Assessment consisted of evaluation of infected leaf area per plant. 0% means an efficacy which corresponds to that of the control, while an efficacy of 100% means that no disease is observed.

For the molecule `CNC(=O)c1cc(C#N)cc(C)c1NC(=O)c1cc(Cn2nnc(C(F)(F)F)n2)nn1-c1ncccc1Cl` [2.5, 1-(3-chloropyridin-2-yl)-N-[4-cyano-2-methyl-6-(methylcarbamoyl)phenyl]-3-{[5-(trifluoromethyl)-2H-tetrazol-2-yl]methyl}-1H-pyrazole-5-carboxamide], for the setting “application rate 2.5 ppm a.i.”, the “Efficacy in % found*” value turned out to be 13%.

As to `CC1CC(C)(C)c2cccc(NC(=O)c3cn(C)nc3C(F)F)c21` (stereo not drawn) [(I-1), 3-(difluoromethyl)-1-methyl-N-(1,1,3-trimethyl-2,3-dihydro-1H-inden-4-yl)-1H-pyrazole-4-carboxamide], the “Efficacy in % found*” value (application rate 25 ppm a.i., 0% = control, 100% = no disease) stood at 25%.

`CNC(=O)c1cc(C#N)cc(C)c1NC(=O)c1cc(Br)nn1-c1ncccc1Cl` [2.2, Cyantraniliprole, reference compound]: the “Efficacy in % found*” value (application rate 0.5 ppm a.i.) was 0%.
